Measurements as given in patent US9464064B2, “HCV helicase inhibitors and methods of use thereof” (University of Kansas, priority 2011, dated 2016).

Molecular target: T1, HCV NS3 helicase NS3h_1b(con1) (Hepatitis C virus genotype 1b, UniProt Q9WMX2)
T1 construct: truncated C-terminally His-tagged NS3 proteins lacking the N-terminal protease, called NS3h; His-tag (C); made in house
Assay: MBHA screen of NCI mechanistic set library at 20 μM (percent inhibition, compound interference)
Assay type: biochemical
Conditions: compounds at 20 μM; for Inh. (%) (Inhibition): calculated from Equation 1
In short: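 Molecular beacon-based DNA unwinding assay; compounds screened at 20 μM in triplicate, with DMSO-only negative and 500 nM dT20 positive controls. Fluorescence (ex 643/em 670 nm) was read before and 30 min after adding ATP to 1 mM. Percent inhibition came from the change relative to DMSO controls; interference from pre-ATP fluorescence versus DMSO controls.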

[1] = assay interference calculated with Equation 2 (fluorescence vs DMSO-only controls before ATP)
[2] = MBHA with DNA substrate, assay interference calculated with Equation 2

T1 sequence (Q9WMX2 1192-1657): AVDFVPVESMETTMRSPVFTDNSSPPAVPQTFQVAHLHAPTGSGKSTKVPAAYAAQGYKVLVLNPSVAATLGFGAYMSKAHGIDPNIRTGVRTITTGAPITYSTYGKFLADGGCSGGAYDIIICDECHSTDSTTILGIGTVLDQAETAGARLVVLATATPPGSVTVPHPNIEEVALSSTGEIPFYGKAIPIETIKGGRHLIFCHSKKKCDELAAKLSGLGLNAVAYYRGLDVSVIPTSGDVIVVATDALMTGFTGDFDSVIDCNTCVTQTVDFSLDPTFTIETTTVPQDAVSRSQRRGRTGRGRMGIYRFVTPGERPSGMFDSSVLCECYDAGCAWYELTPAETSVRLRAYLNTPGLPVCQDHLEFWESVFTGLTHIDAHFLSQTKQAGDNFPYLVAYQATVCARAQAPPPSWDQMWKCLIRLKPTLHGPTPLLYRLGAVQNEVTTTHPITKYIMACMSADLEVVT

Structure (SMILES)	Inh. (%) (Inhibition) (MBHA with a DNA substrate)	Int.* (Ratio) (Interference) [1]	Int.* (Ratio) (Interference) [2]	Inh. (%) (Inhibition) (MBHA with DNA substrate)
O=C1C(Cl)=C(N2CCN(C3=C(Cl)C(=O)c4ccccc4C3=O)CC2)C(=O)c2ccccc21 [Compound 40341]	−6.4%	1.09 Ratio		
Nc1nc(SCc2ccccc2Cl)c2ncn(C3OC(CO)C(O)C3O)c2n1 (centres unmarked) [Compound 40666]	−2.9%	1.09 Ratio		
COc1ccc(/C=C/c2cc(O)cc(O[C@@H]3O[C@H](CO)[C@@H](O)[C@H](O)[C@H]3O)c2)cc1O [Compound 43321]	−28.3%	1.07 Ratio		
CCN(CC)c1ccc2cc3ccc(=[N+](CC)CC)cc-3oc2c1.[Cl-] [Compound 44690]			0.66 Ratio	61.5%
COC1=C(N)C(=O)c2nc(-c3nc(C(=O)O)c(C)c(-c4ccc(OC)c(OC)c4O)c3N)ccc2C1=O [Compound 45383]	−19.1%	1.05 Ratio		
CN(C)/N=N/c1nc[nH]c1C(N)=O [Compound 45388]			0.95 Ratio	17.5%
Oc1ccc2ccccc2c1N=Nc1cccc2ccccc12 [Compound 45575]			0.97 Ratio	18.4%
CN1CCN(CCCN2c3ccccc3Sc3ccc(C(F)(F)F)cc32)CC1 [Compound 46061]			0.93 Ratio	13.2%
CC(=O)O[C@]1(C(C)=O)CC[C@H]2[C@@H]3C[C@H](C)C4=CC(=O)C=C[C@]4(C)[C@@]3(F)[C@@H](O)C[C@@]21C [Compound 47438]			1.18 Ratio	−12.2%
CC(C)(C)c1ccc(O)c(CN(Cc2cc(C(C)(C)C)ccc2O)C2CCCCC2)c1 [Compound 48151]			0.98 Ratio	2.1%
[Cl-].c1csc(C[N+]23CN4CN(CN(C4)C2)C3)c1 [Compound 49660]			0.93 Ratio	21.2%
CC[C@]1(O)C[C@@H]2CN(CCc3c([nH]c4ccccc34)[C@@](C(=O)OC)(c3cc4c(cc3OC)N(C)[C@H]3[C@@](O)(C(=O)OC)[C@H](OC(C)=O)[C@]5(CC)C=CCN6CC[C@]43[C@@H]65)C2)C1.O=S(=O)(O)O [Compound 49842]	9.9%	0.98 Ratio		
[Cl][Cd][Cl] [Compound 51148]			0.94 Ratio	53.4%
CN(C)[C@@H]1C(=O)C(C(N)=O)=C(O)[C@@]2(O)C(=O)C3=C(O)c4c(O)cccc4C[C@H]3C[C@@H]12 [Compound 51812]			0.99 Ratio	−8.1%
C[C@@H]1C[C@H]2CC[C@H](O2)[C@H](C)C(=O)O[C@@H](C)C[C@@H]2CC[C@@H](O2)[C@@H](C)C(=O)O[C@H](C)C[C@H]2CC[C@H](O2)[C@H](C)C(=O)O[C@@H](C)C[C@@H]2CC[C@@H](O2)[C@@H](C)C(=O)O1 [Compound 52141]			0.83 Ratio	−11.6%
COc1ccc(-c2cc(=O)c3c(OC)c(OC)c(OC)cc3o2)cc1 [Compound 53908]			0.82 Ratio	26.0%
Nc1nc(-c2cccs2)cs1 [Compound 54297]	−4.0%	0.96 Ratio		
COc1ccc2oc(-c3ccncc3)cc(=O)c2c1 [Compound 54650]			1.11 Ratio	24.7%
O=C1/C(=C/c2cccs2)Oc2ccccc21 [Compound 56544]			0.96 Ratio	1.5%
COc1cccc(/C=N\NC(=O)C(C)SC(C)C(=O)N/N=C/c2cccc(OC)c2)c1 (centres unmarked) [Compound 56737]			1.12 Ratio	−7.2%
Cc1cc2c(C(C)C)c(O)c(O)c(C=O)c2c(O)c1-c1c(C)cc2c(C(C)C)c(O)c(O)c(C=O)c2c1O [Compound 56817]			0.90 Ratio	−2.0%
CO[C@@H]1[C@H](O)C[C@@H](O[C@@H]2C[C@H](Oc3cc4cc5c(c(O)c4c(O)c3C)C(=O)[C@@H](O[C@H]3C[C@@H](O[C@H]4C[C@@H](O[C@H]6C[C@](C)(O)[C@@H](OC(C)=O)[C@H](C)O6)[C@H](O)[C@@H](C)O4)[C@H](O)[C@@H](C)O3)[C@H]([C@H](OC)C(=O)[C@@H](O)[C@@H](C)O)C5)O[C@H](C)[C@@H]2OC(C)=O)O[C@@H]1C [Compound 58514]			1.04 Ratio	54.9%

Structure (SMILES)	Inh. (%) (Inhibition) (MBHA with a DNA substrate)	Int.* (Ratio) (Interference) [1]	Int.* (Ratio) (Interference) [2]	Inh. (%) (Inhibition) (MBHA with DNA substrate)
CCCCCCCCCCCCCCCCOCC(O)CO (centres unmarked) [Compound 59269]			0.96 Ratio	−9.7%
O=[n+]1c2c(n([O-])c3ccccc31)-c1cccc3cccc-2c13 [Compound 60309]			0.93 Ratio	13.6%
CC12C(=O)OC(=O)C1(C)C1CCC2O1 (centres unmarked) [Compound 61805]			0.95 Ratio	−0.5%
CC[C@@]12CCCN3CC[C@]4(c5cccc(OC)c5N(C(C)=O)[C@@H]4CC1)[C@H]32 [Compound 61811]			0.91 Ratio	−2.8%
CC(C)C(C)C=CC(C)C1CCC2C3=CC=C4CC(O)CCC4(C)C3CCC21C (centres unmarked) [Compound 62791]			0.93 Ratio	−9.1%
CS(=O)(=O)c1nc(N)nc2nc[nH]c12 [Compound 63446]			0.76 Ratio	4.3%
N#Cc1cn([C@@H]2O[C@H](CO)[C@@H](O)[C@H]2O)c2ncnc(N)c12 [Compound 63701]	−3.8%	0.98 Ratio		
Cl.Nc1ccn([C@@H]2O[C@H](CO)[C@@H](O)[C@@H]2O)c(=O)n1 [Compound 63878]	8.3%	0.89 Ratio		
Nc1ncnc2c1ncn2[C@@H]1O[C@H](CO)C[C@H]1O [Compound 63984]			1.11 Ratio	−0.8%
CC(C)CCCCCCCCCCCCC(=O)NCC(=O)N[C@@H]1[C@@H](O)[C@H](O)[C@@H](Nc2ncnc3nc[nH]c23)O[C@H]1[C@@H](O)CO [Compound 65104]	−22.3%	1.01 Ratio		
NC(=O)c1cn(C2OC(CO)C(O)C2O)c2ncnc(N)c12 (centres unmarked) [Compound 65346]			0.92 Ratio	0.0%
CC1OC1C(=O)C1(O)C(C)C(O)C23OC2(C(O)c2c(O)cccc2C3=O)C1O (centres unmarked) [Compound 65380]	11.3%	1.03 Ratio		
NC(=O)C#CC(N)=O [Compound 65381]			0.96 Ratio	14.1%
OC[C@H]1O[C@@H](n2cnc3cncnc32)[C@H](O)[C@@H]1O [Compound 65423]			1.12 Ratio	2.0%
O=C(Nc1ccc2c(c1)oc(=O)c1ccccc12)C(Cl)Cl [Compound 65937]			1.01 Ratio	−9.8%
CCCCC(/C=N/N=C(N)N)CC.Cc1cc(O)c(C(C)C)cc1S(=O)(=O)O [Compound 66300]			1.21 Ratio	2.2%
CCCc1c(Cl)nc(Cl)nc1Cl [Compound 66914]			0.91 Ratio	−0.8%
CC[C@]1(O)C[C@H]2CN(CCc3c([nH]c4ccccc34)[C@@](C(=O)OC)(c3cc4c(cc3OC)N(C=O)[C@H]3[C@@](O)(C(=O)OC)[C@H](OC(C)=O)[C@]5(CC)C=CCN6CC[C@]43[C@@H]65)C2)C1 [Compound 67574]			0.96 Ratio	−16.1%
COc1cc(-c2cc(=O)c3c(OC)c(OC)c(OC)c(OC)c3o2)cc(OC)c1OC [Compound 67580]	−27.4%	1.12 Ratio		
O=C(O)c1ccccc1-c1ccccc1C(=O)Nc1ccc2c(c1)Cc1ccccc1-2 [Compound 67690]			1.16 Ratio	−9.5%
COc1cc(C[C@H]2c3cc(OC)c(OC)cc3CCN2C)c(Oc2cc3c(cc2OC)-c2c(OC)c(OC)cc4c2[C@H](C3)N(C)CC4)cc1OC [Compound 68075]			1.02 Ratio	23.1%
